Laboratory results reported in ChEMBL document CHEMBL1201862, “PubChem BioAssay data set” (2004).
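Test compounds were applied to cells in 96-well plates for 48 hours at 5 doses. GI50 = concentration required for 50% inhibition of growth.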 Calls of active or inactive are those of the source. Cut-off read from the data, not from the text of the source: active = GI50 up to about 1.1 µM and inactive = higher.

Assays:
Assay in all cases: NCI-60 cell line screen, 48 h
[1] = system: UO-31
[2] = system: LOX IMVI
[3] = system: SF-268
[4] = system: U-251
[5] = system: M14
[6] = system: Malme-3M
[7] = system: RPMI-8226
[8] = system: HOP-62
[9] = system: HT-29
[10] = system: MDA-N
[11] = system: HCT-15
[12] = system: SNB-19
[13] = system: A498
[14] = system: ACHN
[15] = system: CAKI-1
[16] = system: HL-60
[17] = system: K562
[18] = system: NCI-H23
[19] = system: BT-549
[20] = system: UACC-62

Row | SMILES | GI50 [1] | GI50 [2] | GI50 [3] | GI50 [4] | GI50 [5] | GI50 [6] | GI50 [7] | GI50 [8] | GI50 [9] | GI50 [10] | GI50 [11] [µM] | GI50 [12] | GI50 [13] | GI50 [14] | GI50 [15] | GI50 [16] | GI50 [17] | GI50 [18] | GI50 [19] | GI50 [20]
1 | Oc1ccccc1/C=N/Nc1nnc2c3ccccc3c3ccccc3c2n1 | > 100 µM (inactive) | 84.3 µM (inactive) | > 100 µM (inactive) | > 100 µM (inactive) | > 100 µM (inactive) | 59.6 µM (inactive) | > 100 µM (inactive) | 42.6 µM (inactive) | > 100 µM (inactive) | 29.9 µM (inactive) | 73.6 | > 100 µM (inactive) | > 100 µM (inactive) | > 100 µM (inactive) | > 100 µM (inactive) | > 100 µM (inactive) | > 100 µM (inactive) | > 100 µM (inactive) | > 100 µM (inactive) | 61.4 µM (inactive)
2 | CNc1ncnc2c1cnn2CCCCO | > 100 µM (inactive) | > 100 µM (inactive) | > 100 µM (inactive) | > 100 µM (inactive) | > 100 µM (inactive) | > 100 µM (inactive) | > 100 µM (inactive) | > 100 µM (inactive) | > 100 µM (inactive) | > 100 µM (inactive) | > 100 | > 100 µM (inactive) | > 100 µM (inactive) | > 100 µM (inactive) | > 100 µM (inactive) | > 100 µM (inactive) | > 100 µM (inactive) | > 100 µM (inactive) | > 100 µM (inactive) | > 100 µM (inactive)
3 | CC(=O)OCCc1cc2ccccc2oc1=O | > 100 µM (inactive) | > 100 µM (inactive) | > 100 µM (inactive) | > 100 µM (inactive) | > 100 µM (inactive) | > 100 µM (inactive) | > 100 µM (inactive) | > 100 µM (inactive) | > 100 µM (inactive) | > 100 µM (inactive) | > 100 | > 100 µM (inactive) | > 100 µM (inactive) | > 100 µM (inactive) | > 100 µM (inactive) | > 100 µM (inactive) | > 100 µM (inactive) | > 100 µM (inactive) | > 100 µM (inactive) | > 100 µM (inactive)
4 | C=C(C)[C@H]1[C@@H]2OC(=O)[C@H]1[C@]1(O)C[C@H]3OC34C(=O)O[C@H]2[C@@]41C.CC(C)(O)[C@H]1[C@@H]2OC(=O)[C@H]1[C@]1(O)C[C@H]3OC34C(=O)O[C@H]2[C@@]41C (stereo not given in full) | > 100 µM (inactive) | > 100 µM (inactive) | > 100 µM (inactive) | > 100 µM (inactive) | > 100 µM (inactive) | > 100 µM (inactive) | > 100 µM (inactive) | > 100 µM (inactive) | > 100 µM (inactive) | > 100 µM (inactive) | > 100 | > 100 µM (inactive) | > 100 µM (inactive) | > 100 µM (inactive) | > 100 µM (inactive) | > 100 µM (inactive) | > 100 µM (inactive) | > 100 µM (inactive) | > 100 µM (inactive) | > 100 µM (inactive)
5 | O=C1C=CC(=O)c2c1ccc1c3ccccc3n(-c3ccccc3[N+](=O)[O-])c21 | 1.44 µM (inactive) | 1.93 µM (inactive) | 2.44 µM (inactive) | 4.59 µM (inactive) | 2.03 µM (inactive) | 2.17 µM (inactive) | 0.71 µM (active) | 18.6 µM (inactive) | 5.2 µM (inactive) | 3.04 µM (inactive) | 2.96 | 9.84 µM (inactive) | 20.7 µM (inactive) | 1.71 µM (inactive) | 1.47 µM (inactive) | 1.06 µM (active) | 0.828 µM (active) | 4.55 µM (inactive) | 4.97 µM (inactive) | 4.91 µM (inactive)
6 | CCOC(=O)/C(C#N)=C/c1ccc2c(c1)CC1(C2)Cc2cc(CC)c(C(C)O)cc2C1 (stereo not given) | 21.4 µM (inactive) | 6.95 µM (inactive) | 13 µM (inactive) | 6.35 µM (inactive) | 5.32 µM (inactive) | 6.11 µM (inactive) | 6.84 µM (inactive) | 14.2 µM (inactive) | 19.1 µM (inactive) | 2.21 µM (inactive) | 5.24 | 15.1 µM (inactive) | 25.8 µM (inactive) | 30.3 µM (inactive) | 57.9 µM (inactive) | 3.03 µM (inactive) | 4.31 µM (inactive) | 13.5 µM (inactive) | 10.8 µM (inactive) | 7.83 µM (inactive)
7 | CCc1cccc(C(C)(C)C)c1NC(=S)N/C=C(/C#N)C(N)=O | 31.3 µM (inactive) | > 100 µM (inactive) | > 100 µM (inactive) | > 100 µM (inactive) | > 100 µM (inactive) | > 100 µM (inactive) | > 100 µM (inactive) | > 100 µM (inactive) | > 100 µM (inactive) | > 100 µM (inactive) | 62.4 | > 100 µM (inactive) | > 100 µM (inactive) | > 100 µM (inactive) | > 100 µM (inactive) | 93.1 µM (inactive) | > 100 µM (inactive) | > 100 µM (inactive) | 44.8 µM (inactive) | > 100 µM (inactive)
